Source: the NIST ThermoML archive (doi:10.1021/acs.jced.5b00209)

Details: 101.33 kPa, Liquid; for viscosity: Capillary tube (Ostwald / Ubbelohde) method; for mass density: Pycnometric method

C[S+](C)[O-] [dimethyl sulfoxide]
Details	mass density [kg/m3]	viscosity [mPa·s]
298.15 K	1096.8	2.01
303.15 K	1091.4	1.82
308.15 K	1086.1	1.65
313.15 K	1081.2	1.54
318.15 K	1075.3	1.37
